Values joined by “and” are separate entries in the source; they are usually repeats but may differ in a detail not shown here. Identical values can stand only once.
What was measured:
Conditions in all cases: at 1 µM
[1] = target: T1, Inhibitor of nuclear factor kappa-B kinase subunit beta (Homo sapiens) (UniProt O14920)
T1 sequence (whole entry): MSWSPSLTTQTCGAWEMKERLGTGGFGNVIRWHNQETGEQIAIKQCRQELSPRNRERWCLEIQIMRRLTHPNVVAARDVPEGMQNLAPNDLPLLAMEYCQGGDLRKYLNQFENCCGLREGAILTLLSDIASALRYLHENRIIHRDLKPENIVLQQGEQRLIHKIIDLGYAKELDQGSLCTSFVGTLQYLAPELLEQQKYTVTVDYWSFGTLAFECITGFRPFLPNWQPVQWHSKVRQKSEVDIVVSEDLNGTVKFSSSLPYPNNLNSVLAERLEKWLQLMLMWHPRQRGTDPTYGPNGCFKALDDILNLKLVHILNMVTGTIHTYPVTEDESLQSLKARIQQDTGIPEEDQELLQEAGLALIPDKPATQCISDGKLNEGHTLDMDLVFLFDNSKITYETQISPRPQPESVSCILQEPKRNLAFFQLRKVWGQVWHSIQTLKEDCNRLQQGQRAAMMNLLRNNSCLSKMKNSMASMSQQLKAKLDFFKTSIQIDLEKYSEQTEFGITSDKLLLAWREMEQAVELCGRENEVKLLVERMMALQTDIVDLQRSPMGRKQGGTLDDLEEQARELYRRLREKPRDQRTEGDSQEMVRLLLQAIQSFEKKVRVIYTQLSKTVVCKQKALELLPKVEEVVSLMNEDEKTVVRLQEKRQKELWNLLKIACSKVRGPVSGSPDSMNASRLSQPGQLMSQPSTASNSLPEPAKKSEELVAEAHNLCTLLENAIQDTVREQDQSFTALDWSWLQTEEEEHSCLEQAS

[2] = target: T2, Serine/threonine-protein kinase TBK1 (Homo sapiens) (UniProt Q9UHD2)
T2 sequence (whole entry): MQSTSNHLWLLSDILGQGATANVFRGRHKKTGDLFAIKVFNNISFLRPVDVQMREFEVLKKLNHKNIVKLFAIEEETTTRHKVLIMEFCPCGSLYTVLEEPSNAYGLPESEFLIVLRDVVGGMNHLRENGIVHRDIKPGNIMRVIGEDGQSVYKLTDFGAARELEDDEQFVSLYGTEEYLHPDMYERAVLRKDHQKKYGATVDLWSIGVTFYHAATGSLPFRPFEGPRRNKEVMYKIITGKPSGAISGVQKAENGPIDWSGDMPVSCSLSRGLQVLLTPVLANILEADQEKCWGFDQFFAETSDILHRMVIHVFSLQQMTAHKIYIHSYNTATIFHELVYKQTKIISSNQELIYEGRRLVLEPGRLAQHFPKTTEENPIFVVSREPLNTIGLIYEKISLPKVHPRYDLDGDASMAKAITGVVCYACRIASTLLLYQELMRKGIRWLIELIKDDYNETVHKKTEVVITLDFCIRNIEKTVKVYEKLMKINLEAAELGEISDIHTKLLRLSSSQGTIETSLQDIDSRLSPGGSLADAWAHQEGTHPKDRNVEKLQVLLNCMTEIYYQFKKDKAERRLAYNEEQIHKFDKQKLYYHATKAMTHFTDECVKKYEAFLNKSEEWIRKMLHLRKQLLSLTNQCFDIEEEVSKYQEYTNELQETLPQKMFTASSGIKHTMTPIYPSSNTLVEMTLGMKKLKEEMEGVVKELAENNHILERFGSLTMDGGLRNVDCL

[3] = target: T3, Inhibitor of nuclear factor kappa-B kinase subunit alpha (Homo sapiens) (UniProt O15111)
T3 sequence (whole entry): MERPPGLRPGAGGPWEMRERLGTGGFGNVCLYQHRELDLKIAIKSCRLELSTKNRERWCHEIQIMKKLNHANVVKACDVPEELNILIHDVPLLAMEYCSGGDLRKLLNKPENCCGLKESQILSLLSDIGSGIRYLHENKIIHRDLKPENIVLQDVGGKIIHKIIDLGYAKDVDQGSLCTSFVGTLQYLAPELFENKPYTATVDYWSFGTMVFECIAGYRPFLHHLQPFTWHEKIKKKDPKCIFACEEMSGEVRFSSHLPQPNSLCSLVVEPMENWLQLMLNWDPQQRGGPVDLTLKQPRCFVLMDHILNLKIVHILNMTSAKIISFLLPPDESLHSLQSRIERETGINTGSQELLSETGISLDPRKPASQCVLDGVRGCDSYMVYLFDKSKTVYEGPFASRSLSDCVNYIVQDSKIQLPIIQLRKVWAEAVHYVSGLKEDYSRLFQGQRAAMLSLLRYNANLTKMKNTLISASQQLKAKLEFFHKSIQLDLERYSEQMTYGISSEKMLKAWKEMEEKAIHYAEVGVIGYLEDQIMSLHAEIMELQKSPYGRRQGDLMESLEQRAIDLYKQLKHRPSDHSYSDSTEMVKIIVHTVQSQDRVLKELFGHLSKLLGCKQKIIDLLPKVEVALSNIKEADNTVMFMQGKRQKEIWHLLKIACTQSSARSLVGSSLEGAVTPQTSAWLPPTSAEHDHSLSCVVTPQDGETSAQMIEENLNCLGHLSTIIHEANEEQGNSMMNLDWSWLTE

| inhibition [1] | inhibition [2] | inhibition [3] | SMILES |
| --- | --- | --- | --- |
| -1% and 4% | -3% and -2% | 3% and 2% | c1ccc(COc2ccc(Nc3ncnc4ccc(-c5ccco5)cc34)cc2)cc1 |
| -4% and -2% | 15% and 7% | 0% and 4% | COc1ccccc1-c1cc(/C=C2\C(=O)Nc3ncc(Br)cc32)cc(Br)c1O |
| 2% and -2% | 3% and 1% | -3% and -2% | CS(=O)(=O)CCNCc1ccc(-c2ccc3ncnc(Nc4ccc(OCc5cccc(F)c5)c(C(F)(F)F)c4)c3c2)o1 |
| -5% and -1% | 57% and 54% | 1% and 2% | COc1cc2c(cc1Nc1nc(Nc3ccsc3C(N)=O)c3cc[nH]c3n1)N(C(=O)CN(C)C)CCC2(C)C |
| -4% and -3% | 6% and 11% | 4% and 2% | NC(=O)c1cccc(Nc2nccc(Nc3cccc(F)c3)n2)c1 |
| 1% | 54% and 57% | 0% and 1% | COc1cc2ncn(-c3cc(O[C@@H](C)c4ccccc4Cl)c(C(N)=O)s3)c2cc1OC |
| -2% and -4% | -2% and 1% | 0% | O=S(=O)(CCOCc1ccc(-c2ccc3ncnc(Nc4ccc(OCc5cccc(F)c5)c(Cl)c4)c3c2)o1)c1ccccc1 |
| -3% and -4% | -6% and -9% | 0% and 1% | CN1CCC(n2cnc(-c3ccc(F)cc3)c2-c2ccnc(NCCO)n2)CC1 |
| 13% and -2% | 3% and 0% | 2% and 0% | CCn1c(-c2nonc2N)nc2cncc(C(=O)N3CCNCC3)c21 |
| 3% and 4% | 4% and 3% | -5% and -4% | COc1ccc(-c2ccncc2)cc1C(N)=O |
| 5% and -2% | -1% and 0% | -1% | Clc1ccc(CNc2nccc(-c3cnn4ncccc34)n2)cc1 |
| -2% | -4% and -6% | 0% and 2% | N#Cc1c(NC(=O)c2ccc(F)cc2)sc2c1CCCC2 |
| -4% and -5% | -1% and 2% | 3% and 2% | COC(=O)c1cncc(/C=C/c2c(C)cc(O)cc2C)c1 |
| -2% and -1% | -4% and -3% | 0% and -1% | c1ccc(-c2n[nH]cc2-c2ccnc(-c3ccc(OCCn4ccnc4)cc3)c2)nc1 |
| -2% and -3% | -3% and -2% | -2% and 0% | Fc1cccc(COc2ccc(Nc3ncnc4sc(-c5cccs5)cc34)cc2Cl)c1 |
| -2% | -2% and -4% | 2% and 1% | c1cnn2ncc(-c3ccnc(NCCCN4CCOCC4)n3)c2c1 |
| -3% and -6% | 1% and 4% | 22% | CCn1c(-c2nonc2N)nc2c(C#CCN)ncc(OCCCN)c21 |
| -1% | -1% and -2% | 2% and 3% | NC(=O)Cc1ccccc1Oc1nccc(-c2c(-c3ccc(F)cc3)ncn2C2CCNCC2)n1 |
| -7% and -4% | 3% and 1% | 0% and 1% | COc1cc2ncnc(Nc3ccc(C)c(O)c3)c2cc1OC |
| -7% | 9% and 14% | 4% | COc1cc(C=NNc2ncnc3c2cnn3Cc2ccccc2)ccc1O |
| -2% | 33% and 30% | -1% and -2% | COc1cc(Nc2nccc(Nc3ccc4c(C)n[nH]c4c3)n2)cc(OC)c1OC |
| -9% | 38% and 33% | -4% and -2% | COc1cc(Nc2nccc(-c3cnn4ncccc34)n2)cc(OC)c1 |
| -10% | 31% and 33% | 6% | COc1cc(/C=N/Nc2ncnc3[nH]ncc23)ccc1O |
| 5% and 1% | 2% and 1% | 2% | CCn1c(-c2nonc2N)nc2ccc(F)cc21 |
| 10% and 6% | 41% and 42% | 14% and 0% | Fc1cccc(COc2ccc(Nc3ncnc4sc(-c5ccco5)cc34)cc2Cl)c1 |
| -5% and -1% | 0% and -3% | -1% and 2% | CCCN1CCC(Oc2cc(Nc3nc(Nc4cccc(F)c4C(N)=O)c4cc[nH]c4n3)c(OC)cc2Cl)CC1 |
| -8% and -3% | 19% and 18% | -6% and 2% | O=C1NC(=O)C(c2cccc(Cl)c2)=C1Nc1ccc(Cl)c(C(=O)O)c1 |

Source: ChEMBL document CHEMBL2007661, “Compounds: GSK PKIS; Assays: UNC Frye lab” (2012)
